# From patent US20040167103A1, “Haloacetamide and azide substituted compounds and methods of use thereof” (priority 2003, published 2004)
# Tests used:
# LNCaP cells [1] = test: TUNEL assay (apoptosis, DNA fragmentation); assay type: cell-based, human; details: LNCaP cells exposed for 24 hours, relative to 0.1% DMSO vehicle control
# Procedure: METHODS: DNA fragmentation of apoptotic cells was monitored by the TUNEL assay as described by the supplier. Briefly, LNCaP cells were plated at 2×10^5 cells/well in 2-well chamber slides and incubated at 37° C., 5% CO2 for 24 h to allow the cells sufficient time to attach and be in log phase growth at the start of the experiment. The media was aspirated and replaced with media containing vehicle control (DMSO) or drug dissolved in DMSO. The total volume of DMSO/drug added to each well was equal to 0.1% of the media volume in each well. LNCaP cells were treated with vehicle control, and increasing concentrations of Compound 1 and Compound 2 (0.1, 1.0, and 10.0 μM) for 24-48 h. Two wells were treated with the same concentration of the drugs or DMSO for each treatment condition listed above. The media was collected along with the trypsinized cells and centrifuged at 150×g for 4 min. […] Green and red fluorescence emissions were observed microscopically using 520 nm and >620 nm filters, respectively.
# RESULTS: The TUNEL assay is used to determine whether cells are undergoing apoptosis (cell death mechanism) as a result of drug treatment. […] TUNEL assay incorporates a dye that labels the 3′ ends of such DNA fragments which are then visualized by fluorescence. […]
# LNCaP cells [2] = test: Cell growth inhibition (sulforhodamine B assay), LNCaP; assay type: cell-based, human; details: for Sensitivity of LNCaP cells compared with other cell lines: LNCaP the only androgen receptor expressing cell line tested; for IC50: Homo sapiens, LNCaP, SRB assay
# Procedure: (§1) Prostate cancer cell lines were obtained from ATCC. All cells were grown in RPMI-1640 medium containing 2 mM L-glutamine supplemented with 10% fetal bovine serum (FBS) and maintained in a 5% CO2/95% air humidified atmosphere at 37° C.
# Cells were plated on 96-well plates and incubated with drug-containing culture medium (200 μL/well) for 4 (DU 145, PC-3, PPC-1, and TSU) or 6 (LNCaP) days. Medium was replaced with freshly prepared batches every other day during the incubation. At the end of drug treatment, an aliquot of 50 μL of cold (4° C.) trichloroacetic acid (TCA, 50%) was gently layered on the top of growth medium in each well to make a final TCA concentration of 10%. The mixtures were incubated at 4° C. for 1 hour, and then washed 5 times with tap water to remove TCA, growth medium, low-molecular-weight metabolites, and serum proteins. The plates were air dried overnight. Next, fixed cells were stained with 50 μL of SRB solution (0.4%, wt/vol) for 10 minutes. After staining, SRB solution was decanted, and plates were quickly rinsed 5 times with 1% acetic acid to remove unbound dye and air dried overnight. The cellular protein-bound SRB was then dissolved with 200 μL unbuffered Tris base (10 mM, pH 10.5) for 30 minutes on a rocking platform shaker, and absorbance at 540 nm was measured by a plate reader.
# Percentage of cell survival was calculated by absorbance at 540 nm in testing wells divided by absorbance in negative control wells (medium without the test compound). Percentages of cell survival versus drug concentrations were plotted and the concentration of drug that inhibited cell growth by 50% (IC50) was determined by nonlinear regression using WinNonlin (Pharsight Corporation, Mountain View, Calif.).
# METHODS: LNCaP, DU145, PC-3, TSU, and PPC-1 cells were cultured in 96-well plates and treated with increasing concentrations of the compound of interest for 4 days. Cell survival was determined by the sulforhodamine B assay and was plotted as a percentage of control (drug-free wells) versus drug concentration. The concentration of drug that inhibited cell growth by 50% (IC50) was determined by non-linear regression. Known anticancer drugs were used as cytotoxic positive controls.
# [3] = biological target: T1, cytosolic AR prepared from rat ventral prostates (Rattus norvegicus, UniProt P15207); test: Androgen receptor radioligand competitive binding assay (3H-mibolerone)
# T1 construct: cytosolic AR prepared from rat ventral prostates; from tissue; host or cells: rat ventral prostate cytosol
# T1 sequence (P15207 1-902): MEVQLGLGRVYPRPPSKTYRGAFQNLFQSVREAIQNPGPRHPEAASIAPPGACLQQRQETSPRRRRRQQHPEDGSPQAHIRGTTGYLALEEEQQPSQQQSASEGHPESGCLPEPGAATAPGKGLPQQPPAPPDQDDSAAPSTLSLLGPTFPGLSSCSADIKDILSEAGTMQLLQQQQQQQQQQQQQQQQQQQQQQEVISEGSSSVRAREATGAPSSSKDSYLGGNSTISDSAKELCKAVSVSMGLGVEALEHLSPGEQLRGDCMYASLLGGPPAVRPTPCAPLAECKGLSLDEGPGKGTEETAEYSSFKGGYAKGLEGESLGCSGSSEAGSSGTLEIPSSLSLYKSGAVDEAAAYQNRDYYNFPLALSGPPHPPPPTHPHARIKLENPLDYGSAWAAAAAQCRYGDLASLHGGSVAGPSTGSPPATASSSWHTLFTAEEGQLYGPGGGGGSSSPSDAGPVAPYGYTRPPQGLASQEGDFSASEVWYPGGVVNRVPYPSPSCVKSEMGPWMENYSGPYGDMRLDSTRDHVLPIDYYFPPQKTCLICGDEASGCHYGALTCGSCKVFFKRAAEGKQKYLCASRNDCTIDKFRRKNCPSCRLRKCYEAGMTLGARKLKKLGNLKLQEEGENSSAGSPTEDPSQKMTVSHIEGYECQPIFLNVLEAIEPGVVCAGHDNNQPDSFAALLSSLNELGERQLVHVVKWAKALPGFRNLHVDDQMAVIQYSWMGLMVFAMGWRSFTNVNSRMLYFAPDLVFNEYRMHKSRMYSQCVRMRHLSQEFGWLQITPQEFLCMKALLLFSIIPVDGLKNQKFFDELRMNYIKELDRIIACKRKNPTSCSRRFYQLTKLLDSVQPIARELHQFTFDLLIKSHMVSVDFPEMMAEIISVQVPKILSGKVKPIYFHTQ
# Procedure: The AR binding affinity of test compounds was determined by a radioligand competitive binding assay with cytosolic AR prepared from rat ventral prostates. […] After incubation, the protein-bound radioactivity was separated from free radioactivity by HAP precipitation. The bound radioactivity was then extracted from HAP by ethanol, and counted in a Beckman LS6800 liquid scintillation counter (Beckman Instruments Inc., Palo Alto, Calif.). Nonspecific binding was determined separately by including 1,000 nM of unlabeled MIB in the incubate. The binding data was fitted to the equation B=B0*[1-C/(IC50+C)] using WinNonlin.
# [4] = system: prostate cancer cell lines DU 145, PC-3, TSU, PPC-1 and LNCaP; test: Cell growth inhibition (sulforhodamine B assay), five prostate cancer cell lines together; assay type: cell-based, human; details: statement in words
# Procedure: as §1
# (§2) Cells were plated on 96-well plates and incubated with drug-containing culture medium (200 μL/well) for 4 (DU 145, PC-3, PPC-1, and TSU) or 6 (LNCaP) days. Medium was replaced with freshly prepared batches every other day during the incubation. At the end of drug treatment, an aliquot of 50 μL of cold (4° C.) trichloroacetic acid (TCA, 50%) was gently layered on the top of growth medium in each well to make a final TCA concentration of 10%. […] The cellular protein-bound SRB was then dissolved with 200 μL unbuffered Tris base (10 mM, pH 10.5) for 30 minutes on a rocking platform shaker, and absorbance at 540 nm was measured by a plate reader.
# (§3) Percentage of cell survival was calculated by absorbance at 540 nm in testing wells divided by absorbance in negative control wells (medium without the test compound). […]
# (§4) METHODS: LNCaP, DU145, PC-3, TSU, and PPC-1 cells were cultured in 96-well plates and treated with increasing concentrations of the compound of interest for 4 days. Cell survival was determined by the sulforhodamine B assay and was plotted as a percentage of control (drug-free wells) versus drug concentration. […]
# LNCaP cells [5] = test: Growth curve (trypan blue cell count, 120 h), LNCaP compared with other lines; assay type: cell-based, human
# Procedure: METHODS: Cells were plated at 5-10×10^4 cells/well in five 6-well plates and incubated at 37° C., 5% CO2 for 24 h to allow the cells sufficient time to attach and be in log phase growth at the start of the experiment. The media was aspirated from four of the plates and replaced with media containing vehicle control (DMSO) or drug dissolved in DMSO. The total volume of DMSO/drug added to each well was equal to 0.1% of the media volume in each well. LNCaP, PC-3, MCF-7, and CV-1 cells were treated with vehicle control, and increasing concentrations of Compound 1 and Compound 2 (0.01, 0.05, 0.1, 0.5, 1.0, 5.0, and 10.0 μM). Three wells were treated with the same concentration of the drugs or DMSO for each treatment condition listed above. The cells from the remaining 6-well plate were collected and counted to determine plating efficiency. The 6-well plates containing DMSO/drug were incubated for 120 h at 37° C., 5% CO2. After 120 h, the media from each well was collected along with trypsinized cells and centrifuged at 150×g for 4 min. The cells were resuspended in 1 mL of media, from which 90 μl was taken and combined with 10 μl trypan blue for counting on a hemacytometer.
# DU 145 cells = test: Cell growth inhibition (sulforhodamine B assay), DU145; assay type: cell-based; details: Homo sapiens, DU-145, 96 h, SRB assay, 4 days treatment
# Procedure: as §1, §2, §3, §4
# PC-3 cells = test: Cell growth inhibition (sulforhodamine B assay), PC-3; assay type: cell-based; details: Homo sapiens, PC-3, 96 h, SRB assay, 4 days treatment
# Procedure: as §1, §2, §3, §4
# PPC-1 cells = test: Cell growth inhibition (sulforhodamine B assay), PPC-1; assay type: cell-based; details: Homo sapiens, PPC-1, 96 h, SRB assay, 4 days treatment
# Procedure: as §1, §2, §3, §4
# TSU cells = test: Cell growth inhibition (sulforhodamine B assay), TSU; assay type: cell-based; details: Homo sapiens, 96 h, SRB assay, 4 days treatment
# Procedure: as §1, §2, §3, §4
smiles,measurement,setting,value
C[C@](O)(COc1ccc(NC(=O)CBr)cc1)C(=O)Nc1ccc([N+](=O)[O-])c(C(F)(F)F)c1 [Compound 1],"Apoptosis, DNA fragmentation (green fluorescence)",LNCaP cells [1],exhibit green fluorescence
same,Sensitivity of LNCaP cells compared with other cell lines,LNCaP cells [2],not more sensitive
same,Ki,[3],13.9 ± 1.4 nM
same,IC50 values in inhibiting the growth of all five prostate cancer cell lines,[4],low micro-molar range
same,Growth inhibitory activity against various cancer cell lines,"LNCaP cells [5]; LNCaP versus PC-3, MCF-7 and CV-1 cells, 0.01-10.0 μM",non-selective growth inhibitory activity
C[C@](O)(COc1ccc(NC(=O)CCl)cc1)C(=O)Nc1ccc([N+](=O)[O-])c(C(F)(F)F)c1 [Compound 2],"Apoptosis, DNA fragmentation (green fluorescence)",LNCaP cells [1],similar
same,Sensitivity of LNCaP cells compared with other cell lines,LNCaP cells [2],not more sensitive
same,Ki,[3],1.9 ± 0.3 nM
same,IC50 values in inhibiting the growth of all five prostate cancer cell lines,[4],low micro-molar range
same,Fold sensitivity of LNCaP cells over PC-3 or CV-1 cells,LNCaP cells [5]; growth curve,approximately 10 fold
"C[C@@H]1CC2=CC(=O)CC[C@@H]2[C@H]2CC[C@@]3(C)[C@@H](CC[C@]3(C)O)[C@@H]21 [Compound 3H-MIB, 3H-mibolerone]",Kd,"[3]; determined in preliminary experiments, read-out: Kd, equilibrium dissociation constant of 3H-MIB",0.19 ± 0.01 nM
N[C@@H](Cc1ccc(N(CCCl)CCCl)cc1)C(=O)O [Melphalan],IC50,"DU 145 cells; Melphalan line, unit nM",31 nM
same,IC50,"LNCaP cells [2]; 4 or 6 days treatment, Melphalan line, unit nM",10.3 nM
same,IC50,"PC-3 cells; Melphalan line, unit nM",30.4 ± 3.1 nM
same,IC50,"PPC-1 cells; Melphalan line, unit nM",16.2 nM
same,IC50,"TSU cells; Melphalan line, unit nM",4 ± 0.2 nM
C[C@@](O)(CBr)C(=O)Nc1ccc([N+](=O)[O-])c(C(F)(F)F)c1 [S-NTBA],IC50,DU 145 cells,4700 ± 300 nM
same,IC50,LNCaP cells [2]; 4 days or 6 days treatment,1300 ± 200 nM
same,IC50,PC-3 cells,3100 ± 500 nM
same,IC50,PPC-1 cells,2200 ± 200 nM
same,IC50,TSU cells,3500 ± 200 nM
